Results from US9623083B2, “Method to screen for an activator of adipose-resident NK cells” (Cornell University, priority 2011, dated 2017).

Key:
[1] = Glucose tolerance test (GTT) after αGalCer injection; type: in vivo, mice
Procedure: (§1) Accordingly, 6 w-old male mice were fed with either 13% LFD or 60% HFD for indicated period of time from 4 d to 24 w as described in Example 1. αGalCer (Toronto Research Chemicals) was dissolved in pyridine at 2.5 mg/ml and then diluted 1:250 in PBS to prepare 10 μg/ml working solution prior to use. In all experiments, mice were injected i.p. with 200 μl αGalCer (100 ng αGalCer per g body weight). The vehicle control group was injected with PBS with 0.4% pyridine. The dosage and frequency of αGalCer injection were the same for all the gain-of-function experiments unless otherwise indicated. HFD mice were injected with αGalCer or vehicle at day 0 and day 2. GTT was conducted on day 4, followed by sacrificing the mice on (day 5) to harvest adipose tissues (or other tissues as indicated), which were processed for immune cell analysis, frozen for Q-PCR or Western blot, or fixed for H&E staining Flow cytometric analyses of NKT levels and other immune cells were performed on day 5.
(§2) For GTT, mice were fasted for 16-18 h followed by injection of glucose (Sigma) at 1 g/kg body weight. Blood glucose was monitored using One-Touch Ultra Glucometer. Fasting insulin levels were measured following a 6 h fast.

[2] = one injection of αGalCer, Ohmura et al. (2010); cited from earlier work
[3] = Fasting insulin levels (ELISA); type: in vivo; details: 8 w HFD mice, FIG. 6D
Procedure: Blood was collected in animals upon 6 h fasting during the day. Circulating insulin levels were measured using the kit from Millipore per supplier's protocols.
as §2

[4] = literature (Berzins 2011; Giaccone 2002); cited from earlier work
[5] = Body and epididymal fat weights; type: in vivo; details: HFD mice, FIG. 4B
Procedure: as §1

[6] = tested on: NKT cells in adipose tissue; assay: Flow cytometric analysis of immune cells in adipose tissue after αGalCer challenge; type: in vivo, mice
Procedure: Single-cell suspensions of stromal vascular cells (SVC) from adipose tissue were prepared as described (Xia et al. (2011)). SVCs from two fat pads per mouse were diluted in 120-200 μl PBS, from which one tenth was used for the subsequent staining Following incubation with anti-CD16/CD32 antibody to block Fc receptors, 1×10^6 cells were incubated with 20 μl of antibodies diluted at optimal concentrations for 20 min at 4° C. Cells were washed three times with PBS and then resuspended in 200 μl PBS for analysis using the FACSCalibur Flow Cytometer (BD Biosciences). NKT cells were defined as CD45^+αGalCer-loaded CD1d-tetramer^+CD3/TCRβ^+ lymphocytes; CD8^+ T cells were defined as CD8^+CD45^+ cells; macrophages were as CD45^+F4/80^+CD11b^+ cells. During the run, samples were completely run out and the total number of CD45^+ lymphocytes or immune cells were gated and counted. The total cell number for various immune cells per g adipose tissue was calculated as (% cells in total CD45^+ lymphocytes or immune cells×total CD45^+ lymphocytes or immune cells)/g adipose tissue.
For the Brdu staining, mice were injected (i.p.) with αGalCer (100 ng per g body weight) at day 0, and then with BrdU (Sigma, 0.6 mg/10 g body weight) at 36 h and 12 h prior to sacrifice at day 3. SVC of adipose tissues were purified, labeled with cell surface antibodies and then fixed in cold 70% ethanol at −20° C. overnight. The rest of steps were performed as the regular flow cytometric analysis using BrdU-FITC antibody and DNA dye 7-AAD (Anaspec).
as §1

[7] = tested on: cells surrounding adipocytes; assay: H&E histology of adipose tissue; type: in vivo, mice; details: WT, 4 d HFD, FIG. 3D; abolished by CD1d deficiency
Procedure: Adipose tissues were fixed in 4% formaldehyde, embedded in paraffin and sectioned by the Cornell Histology Core Facility. Pictures were taken using the Axiovert 200M microscope (Zeiss).
as §1

[8] = tested on: Arg1 protein, p-Y STAT6; assay: Western blot of Arg1 and p-Y STAT6 in WAT and liver; type: in vivo, mice
Procedure: Tissues or cells were lysed in Tris-based lysis buffer containing 1% Triton X-100. Normally, 15-30 μg of total lysates unless otherwise indicated were used in a mini SDS-PAGE as described (Sha et al. (2009) Cell Metab 9, 556-564). Antibodies specific for (p-Tyr641) STATE and (p-Tyr705) STAT3 (Cell signaling) and Arginase 1 (N-20, Santa Cruz sc-18351) were used at 1:500-2000 and for the loading control HSP90 (Santa Cruz) was used at 1:6000. The secondary antibody goat anti-rabbit IgG HRP (1:10,000) was from Bio-Rad. Quantitation of band density was carried out using the ImageLab software of the Bio-Rad ChemiDoc XRS+system following exposure.
as §1

[9] = tested on: gene expression in WAT; assay: Microarray analysis of WAT; type: in vivo, mice; details: 4 d HFD
Procedure: Microarray analyses of WAT were performed as described (39) with four groups of mice (n=3-4 per cohort) as follows: WT+veh, WT+αGalCer, CD1d^−/−+veh and CD1d^−/−+αGalCer. All mice were on 4 d HFD feeding with two αGalCer injections at day 0 and day 2. […] Data have been deposited into the GEO datasets (GSE36032). The array data of IL-4-treated mouse BMDM for 10 days were obtained from the Gene Expression Omnibus (GEO) database with accession number GSE25088 (Szanto A. et al. (2010)).

[10] = tested on: M2 genes in adipose tissue; assay: Q-PCR analysis of M1 and M2 genes in white adipose tissue; type: in vivo, mice
Procedure: RNA extraction from cells and murine tissues, and Q-PCR were carried out as previously described (36) using Trizol (Invitrogen) for liver, and Trizol plus QIAeasy kit (Qiagen) for adipose tissues with DNase digestion (Roche). Q-PCR data collected on the Roche LightCycler 480 were normalized to ribosomal 132 gene in the corresponding sample.
as §1

[11] = tested on: adipose-resident NKT cells; assay: In vivo effectiveness as activator of adipose-resident NKT cells

CCCCCCCCCCCCCCCCCCCCCCCCCC(=O)N[C@@H](CO[C@H]1O[C@H](CO)[C@H](O)[C@H](O)[C@H]1O)[C@H](O)[C@H](O)CCCCCCCCCCCCCC [αGalCer, (2S,3S,4R)-1-O-(alpha-D-galactosyl)-N-hexacosanoyl-2-amino-1,3,4-octadecanetriol]
effect on glucose tolerance in CD1d-/- mice ([1]; CD1d-/- mice, 4 d HFD, FIG. 6E): no effect | αGalCer effect in glucose tolerance in IL-4-/- mice ([1]; IL-4-/- mice, 4 d HFD, FIG. 11B-C): completely abolished | systemic glucose tolerance ([1]; WT mice at all stages of HFD (4 d, 8 w, 24 w), FIGS. 6A-C): improved systemic glucose tolerance | effect on glucose tolerance in mice on LFD ([1]; WT mice on LFD, FIG. 6F): no effect on glucose tolerance | effect on glucose tolerance in HFD animals [2]: mild effect | effect on fasting insulin levels [3]: no effect | tolerability in humans [4]: well tolerated | toxicity [4]: not toxic | effect on body and epididymal fat weights [5]: no discernible effect | macrophages and CD8+ T cells in adipose tissue ([6]; 4 d HFD mice, FIG. 5A): milder increases | increase in percentage of NKT cells in adipose tissue ([6]; 4 d HFD mice, αGalCer 100 ng per g body weight i.p. day 0 and day 2, FIG. 3C): > 4 fold | increase in total cell number of NKT cells in adipose tissue ([6]; 4 d HFD mice, αGalCer i.p. day 0 and day 2, FIG. 5A): 70 fold | reduction of total lymphocytes in WAT of IL-4-/- mice relative to WT cohorts after αGalCer ([6]; 4 d HFD, FIG. 12B): approximately 40% | number of cells surrounding adipocytes in WAT sections [7]: significant increase | Arg1 protein in CD1d-/- WAT ([8]; CD1d-/- mice, FIG. 7C-D): abolished | tyrosine phosphorylation (p-Y) of STAT6 in WAT following αGalCer with loss of IL-4 ([8]; IL-4-/- mice, 4 d HFD, FIG. 11E-F): completely abolished | Arg1 protein in WT WAT ([8]; WT mice, HFD, FIG. 7C-D): significantly induced | hepatic STAT6 activation ([8]; liver of WT mice, 4 d HFD, FIG. 11G): not activated | Arg1 protein induction in the liver ([8]; liver, 4 d or 8 w HFD, FIG. 8B): not observed in the liver | number of genes whose expression was significantly increased by more than 2-fold in WAT ([9]; WT vs CD1d-/-, NKT-dependent, FIG. 9A): 1,556 genes | Arg1 expression, αGalCer vs. veh in WT WAT ([9]; microarray, FIG. 9B): 32 fold | Chi313 expression, αGalCer vs. veh in WT WAT ([9]; microarray, FIG. 9B): 138 fold | pdcd1Ig2 expression, αGalCer vs. veh in WT WAT ([9]; microarray, FIG. 9B): 53 fold | Il4 mRNA levels in WAT ([10]; 4 d HFD, NKT-dependent, FIG. 9F): highly induced | αGalCer-mediated induction of M2 genes in WAT of myeloid cell-specific PPARγ or PPARβ/δ-deficient animals ([10]; 4 day HFD, vs WT control littermates, FIG. 12C): not affected | αGalCer-mediated induction of M2 genes Arg1, Chi3l3, Pdcd1Ig2 and Arg1 protein in WAT with loss of IL-4 ([10]; IL-4-/- mice, 4 d HFD, FIG. 11D-F): markedly attenuated | induction of a subset of M2 genes (Arg1, Chi313, Pdcd1Ig2) in adipose tissue ([10]; all three HFD models, NKT-dependent, FIGS. 7A-B and 8A): 50-100 fold

CCCCCCCCCCCCCCCCCCCCCCCC(=O)NC(COC1O[C@H](CO)[C@H](O)[C@H](O)[C@H]1O)C(O)C(O)CCCCCC (stereo partly shown) [OCH, tetracosanoic acid 1-galactopyranosyloxy-3,4-dihydroxydec-2-yl amide]
effectiveness in vivo [11]: not effective in vivo
